Measurements: patent US20260262643A1, “HERBICIDAL BENZOXAZINES” (FMC CORPORATION, priority 2022, published 2026)

Assays:
ragweed [1] = assay: Test C preemergence; format: in vivo, Ambrosia artemisiifolia; conditions: preemergence, 0 to 100 scale (0 no effect, 100 complete control)
How it was run: (§1)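 Visual injury score, 0–100 (100 = complete control), taken 10 days after treatment relative to untreated controls. Pre: directed spray onto soil over sown seeds. Post: foliar spray at one- to two-leaf stage, 2–10 cm. Solvent/surfactant formulation; loam–sand soil; greenhouse.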

ryegrass, Italian [2] = assay: Test C preemergence; format: in vivo, Lolium multiflorum; conditions: preemergence, 0 to 100 scale (0 no effect, 100 complete control)
How it was run: as §1

oat, wild [3] = assay: Test C preemergence; format: in vivo, Avena fatua; conditions: preemergence, 0 to 100 scale (0 no effect, 100 complete control)
How it was run: as §1

horseweed = assay: Test C postemergence; format: in vivo, Erigeron canadensis; conditions: 10 days, 0 to 100 scale (0 no effect, 100 complete control)
How it was run: as §1

green foxtail [4] = assay: Test C postemergence; format: in vivo, Setaria viridis; conditions: 10 days, 0 to 100 scale (0 no effect, 100 complete control)
How it was run: as §1

galium = assay: Test C postemergence; format: in vivo, Galium aparine; conditions: 10 days, 0 to 100 scale (0 no effect, 100 complete control)
How it was run: as §1

kochia [5] = assay: Test C postemergence; format: in vivo, Bassia scoparia; conditions: 10 days, 0 to 100 scale (0 no effect, 100 complete control)
How it was run: as §1

corn [6] = assay: Test C postemergence; format: in vivo, Zea mays; conditions: 10 days, 0 to 100 scale (0 no effect, 100 complete control)
How it was run: as §1

wheat [7] = assay: Test C postemergence; format: in vivo, Triticum aestivum; conditions: 10 days, 0 to 100 scale (0 no effect, 100 complete control)
How it was run: as §1

sedge, umbrella = assay: Test D flooded paddy test; format: in vivo, Cyperus difformis; conditions: 250 g ai/ha, applied to paddy water, visual rating after 13 to 14 days, scale 0 to 100 (0 no effect, 100 complete control)
How it was run: (§2)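 Post-flood water application at the 2-leaf stage; 3 cm flood depth kept constant; visual control rating 0–100 after 13–14 days greenhouse growth.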

barnyardgrass [8] = assay: Test D flooded paddy test; format: in vivo, Echinochloa crus-galli; conditions: 250 g ai/ha, applied to paddy water, visual rating after 13 to 14 days, scale 0 to 100 (0 no effect, 100 complete control)
How it was run: as §2

ryegrass, Italian [9] = assay: Test C postemergence; format: in vivo, Lolium multiflorum; conditions: 10 days, 0 to 100 scale (0 no effect, 100 complete control)
How it was run: as §1

soybean [10] = assay: Test C postemergence; format: in vivo, Glycine max; conditions: 10 days, 0 to 100 scale (0 no effect, 100 complete control)
How it was run: as §1

blackgrass [11] = assay: Test C postemergence; format: in vivo, Alopecurus myosuroides; conditions: 10 days, 0 to 100 scale (0 no effect, 100 complete control)
How it was run: as §1

pigweed, palmer [12] = assay: Test C preemergence; format: in vivo, Amaranthus palmeri; conditions: preemergence, 0 to 100 scale (0 no effect, 100 complete control)
How it was run: as §1

kochia [13] = assay: Test C preemergence; format: in vivo, Bassia scoparia; conditions: preemergence, 0 to 100 scale (0 no effect, 100 complete control)
How it was run: as §1

soybean [14] = assay: Test C preemergence; format: in vivo, Glycine max; conditions: preemergence, 0 to 100 scale (0 no effect, 100 complete control)
How it was run: as §1

oat, wild [15] = assay: Test C postemergence; format: in vivo, Avena fatua; conditions: 10 days, 0 to 100 scale (0 no effect, 100 complete control)
How it was run: as §1

pigweed, palmer [16] = assay: Test C postemergence; format: in vivo, Amaranthus palmeri; conditions: 10 days, 0 to 100 scale (0 no effect, 100 complete control)
How it was run: as §1

barnyardgrass [17] = assay: Test C preemergence; format: in vivo, Echinochloa crusgalli; conditions: preemergence, 0 to 100 scale (0 no effect, 100 complete control)
How it was run: as §1

barnyardgrass [18] = assay: Test C postemergence; format: in vivo, Echinochloa crusgalli; conditions: 10 days, 0 to 100 scale (0 no effect, 100 complete control)
How it was run: as §1

corn [19] = assay: Test C preemergence; format: in vivo, Zea mays; conditions: preemergence, 0 to 100 scale (0 no effect, 100 complete control)
How it was run: as §1

ducksalad = assay: Test D flooded paddy test; format: in vivo, Heteranthera limosa; conditions: 250 g ai/ha, applied to paddy water, visual rating after 13 to 14 days, scale 0 to 100 (0 no effect, 100 complete control)
How it was run: as §2

green foxtail [20] = assay: Test C preemergence; format: in vivo, Setaria viridis; conditions: preemergence, 0 to 100 scale (0 no effect, 100 complete control)
How it was run: as §1

rice = assay: Test D flooded paddy test; format: in vivo, Oryza sativa; conditions: 250 g ai/ha, applied to paddy water, visual rating after 13 to 14 days, scale 0 to 100 (0 no effect, 100 complete control)
How it was run: as §2

wheat [21] = assay: Test C preemergence; format: in vivo, Triticum aestivum; conditions: preemergence, 0 to 100 scale (0 no effect, 100 complete control)
How it was run: as §1

blackgrass [22] = assay: Test C preemergence; format: in vivo, Alopecurus myosuroides; conditions: preemergence, 0 to 100 scale (0 no effect, 100 complete control)
How it was run: as §1

ragweed [23] = assay: Test C postemergence; format: in vivo, Ambrosia artemisiifolia; conditions: 10 days, 0 to 100 scale (0 no effect, 100 complete control)
How it was run: as §1

COC[C@H]1CN(C(=O)c2cc(-n3cnc(C(C)C)n3)ccc2C)c2cccc(Cl)c2O1 [Compound 313]
Ragweed plant response rating (ragweed [1]; 500 g ai/ha): 70
Ragweed plant response rating (ragweed [1]; Test C, 125 g ai/ha): 0
Ryegrass, Italian plant response rating (ryegrass, Italian [2]; 500 g ai/ha): 100
Ryegrass, Italian plant response rating (ryegrass, Italian [2]; Test C, 125 g ai/ha): 80
Oat, Wild plant response rating (oat, wild [3]; 500 g ai/ha): 90
Oat, Wild plant response rating (oat, wild [3]; Test C, 125 g ai/ha): 90
Plant response rating, Horseweed (horseweed; 500 g ai/ha, postemergence): 90
Plant response rating, Horseweed (horseweed; Postemergence, 125 g ai/ha): 90
Plant response rating, Foxtail, Green (green foxtail [4]; 500 g ai/ha, postemergence): 90
Plant response rating, Foxtail, Green (green foxtail [4]; Postemergence, 125 g ai/ha): 40
Plant response rating, Galium (galium; 500 g ai/ha, postemergence): 100
Plant response rating, Galium (galium; Postemergence, 125 g ai/ha): 100
Plant response rating, Kochia (kochia [5]; 500 g ai/ha, postemergence): 90
Plant response rating, Kochia (kochia [5]; Postemergence, 125 g ai/ha): 90
Plant response rating, Corn (corn [6]; 500 g ai/ha, postemergence): 90
Plant response rating, Corn (corn [6]; Postemergence, 125 g ai/ha): 80
Plant response rating, Wheat (wheat [7]; 500 g ai/ha, postemergence): 50
Plant response rating, Wheat (wheat [7]; Postemergence, 125 g ai/ha): 30
Plant response rating, Sedge, Umbrella (Flood) (sedge, umbrella): 98
Plant response rating, Barnyardgrass (Flood) (barnyardgrass [8]): 35
Plant response rating, Ryegrass, Italian (ryegrass, Italian [9]; 500 g ai/ha, postemergence): 90
Plant response rating, Ryegrass, Italian (ryegrass, Italian [9]; Postemergence, 125 g ai/ha): 80
Plant response rating, Soybean (soybean [10]; 500 g ai/ha, postemergence): 100
Plant response rating, Soybean (soybean [10]; Postemergence, 125 g ai/ha): 100
Plant response rating, Blackgrass (blackgrass [11]; 500 g ai/ha, postemergence): 100
Plant response rating, Blackgrass (blackgrass [11]; Postemergence, 125 g ai/ha): 70
Pigweed, Palmer plant response rating (pigweed, palmer [12]; 500 g ai/ha): 100
Pigweed, Palmer plant response rating (pigweed, palmer [12]; Test C, 125 g ai/ha): 100
Kochia plant response rating (kochia [13]; 500 g ai/ha): 100
Kochia plant response rating (kochia [13]; Test C, 125 g ai/ha): 80
Soybean plant response rating (soybean [14]; 500 g ai/ha): 100
Soybean plant response rating (soybean [14]; Test C, 125 g ai/ha): 40
Plant response rating, Oat, Wild (oat, wild [15]; 500 g ai/ha, postemergence): 60
Plant response rating, Oat, Wild (oat, wild [15]; Postemergence, 125 g ai/ha): 20
Plant response rating, Pigweed, Palmer (pigweed, palmer [16]; 500 g ai/ha, postemergence): 100
Plant response rating, Pigweed, Palmer (pigweed, palmer [16]; Postemergence, 125 g ai/ha): 80
Barnyardgrass plant response rating (barnyardgrass [17]; 500 g ai/ha): 100
Barnyardgrass plant response rating (barnyardgrass [17]; Test C, 125 g ai/ha): 80
Plant response rating, Barnyardgrass (barnyardgrass [18]; 500 g ai/ha, postemergence): 70
Plant response rating, Barnyardgrass (barnyardgrass [18]; Postemergence, 125 g ai/ha): 40
Corn plant response rating (corn [19]; 500 g ai/ha): 0
Corn plant response rating (corn [19]; Test C, 125 g ai/ha): 0
Plant response rating, Ducksalad (Flood) (ducksalad): 65
Foxtail, Green plant response rating (green foxtail [20]; 500 g ai/ha): 100
Foxtail, Green plant response rating (green foxtail [20]; Test C, 125 g ai/ha): 100
Plant response rating, Rice (Flood) (rice): 20
Wheat plant response rating (wheat [21]; 500 g ai/ha): 90
Wheat plant response rating (wheat [21]; Test C, 125 g ai/ha): 20
Blackgrass plant response rating (blackgrass [22]; 500 g ai/ha): 60
Blackgrass plant response rating (blackgrass [22]; Test C, 125 g ai/ha): 50
Plant response rating, Ragweed (ragweed [23]; 500 g ai/ha, postemergence): 90
Plant response rating, Ragweed (ragweed [23]; Postemergence, 125 g ai/ha): 60
